Source: article PMC6269876, “Pancreatic Lipase Inhibitory Gallotannins from Galla Rhois with Inhibitory Effects on Adipocyte Differentiation in 3T3-L1 Cells” (Molecules, 2013)

Columns and labels:
[1] = target: T1, porcine pancreatic lipase (Sus scrofa, UniProt P00591); test: Pancreatic lipase activity assay (p-nitrophenylbutyrate hydrolysis); assay type: biochemical; conditions: for IC50: mean ± SD of three replicates, regression analysis, read-out: Pancreatic lipase inhibitory activity IC50
T1 construct: purchased Sigma, St. Louis, MO, USA
T1 sequence (P00591 1-450): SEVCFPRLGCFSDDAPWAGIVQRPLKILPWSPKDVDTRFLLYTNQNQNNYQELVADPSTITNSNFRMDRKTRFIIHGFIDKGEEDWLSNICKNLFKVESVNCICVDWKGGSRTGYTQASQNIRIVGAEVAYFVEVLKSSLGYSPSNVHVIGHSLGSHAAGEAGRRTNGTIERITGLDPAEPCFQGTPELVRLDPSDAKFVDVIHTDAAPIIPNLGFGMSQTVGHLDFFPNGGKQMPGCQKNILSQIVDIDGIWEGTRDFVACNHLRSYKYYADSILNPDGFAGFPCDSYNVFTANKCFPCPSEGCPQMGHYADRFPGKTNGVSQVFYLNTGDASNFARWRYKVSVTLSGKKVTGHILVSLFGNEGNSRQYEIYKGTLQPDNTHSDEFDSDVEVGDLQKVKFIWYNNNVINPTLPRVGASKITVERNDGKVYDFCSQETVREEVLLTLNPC
Experimental: A previously reported method, with a minor modification, was used for evaluation of the ability of the compounds to inhibit porcine pancreatic lipase. Briefly, an enzyme buffer was prepared by addition of 30 μL (10 units) of a solution of porcine pancreatic lipase (Sigma, St. Louis, MO, USA) in 10 mM morpholinepropanesulphonic acid (MOPS) and 1 mM EDTA (pH 6.8) to 850 μL of Tris buffer (100 mM Tris-HC1 and 5 mM CaCl2, pH 7.0). […] Inhibition of lipase activity was expressed as the percentage decrease in the optical density (OD) when porcine pancreatic lipase was incubated with the test compounds.

3T3-L1 cells = test: Assay of adipocyte differentiation in 3T3-L1 cells (Oil Red O staining); assay type: cell-based; conditions: Mus musculus, 3T3-L1, 50 μM, treated throughout the differentiation period; read-out: Inhibition of lipid deposition (lipid accumulation)
Experimental: Of particular interest, a certain degree of galloylation on the glucose moiety of these active molecules appears to be required for potent inhibitory activity. […] The non-toxic concentrations of the tested compounds were established in 3T3-L1 preadipocytes using concentrations of 50, 25, and 10 μM. After two days of incubation, an MTT assay was performed for measurement of cell viability; according to the results, no cytotoxic effect was detectable for any of the tested compounds in concentrations up to 50 μM. […] 3T3-L1 mouse embryo fibroblasts were cultured in DMEM supplemented with 10% FBS until reaching confluence. Two days after reaching confluence (day 0), to initiated differentiation, cells were stimulated with differentiation medium containing DMEM with 10% FBS, 0.5 mM 3-isobutyl-1-methylxanthine, 1 μM insulin and 1 μM dexamethasone for two days (day 2). […] All media contained 100 IU/mL penicillin and 100 μg/mL streptomycin. Cells were maintained at 37 °C in a humidified atmosphere of 95% air-5% CO2. Throughout the culture period (days 0–8), the cultures were treated with test samples for general experiments, with a slight modification. […] For quantitative analysis, Oil Red O staining was dissolved with isopropyl alcohol and optical density was measured at 500 nm using an ELISA plate reader.

Row | Structure (SMILES) | IC50 [1] [µM] | inhibition at 50 µM (3T3-L1 cells) [%] | Pancreatic lipase inhibition, result in words [1]
1 | C[C@H]1O[C@H](C)[C@@H](O)C2=C1C(=O)c1c(O)cc(O)c(-c3c4c(c(O)c5c(O[C@@H]6O[C@H](CO)[C@@H](O)[C@H](O)[C@H]6O)cc(O)cc35)[C@@H](C)O[C@H](C)[C@H]4O)c1C2=O [Compound 1, protoaphin-fb] | 30.6 ± 2.4 |  | 
2 | O=C(OC[C@H]1O[C@@H](OC(=O)c2cc(O)c(O)c(O)c2)[C@H](OC(=O)c2cc(O)c(O)c(O)c2)[C@@H](O)[C@@H]1OC(=O)c1cc(O)c(O)c(O)c1)c1cc(O)c(O)c(O)c1 [Compound 4, 1,2,4,6-tetra-O-galloyl-β-D-glucose] | 23.2 ± 1.8 |  | 
3 | COC(=O)c1cc(O)c(O)c(O)c1 [Compound 6, methylgallate] | > 300 |  | inactive
4 | O=C(O)c1cc(O)c(O)c(O)c1 [Compound 7, gallic acid] | > 300 |  | inactive

Now those with a lower IC50 [1], led by results:

Row | IC50 [1] [µM] | Structure (SMILES) | inhibition at 50 µM (3T3-L1 cells) [%] | Pancreatic lipase inhibition, result in words [1]
5 | 15.9 ± 1 | O=C(OC[C@H]1O[C@@H](OC(=O)c2cc(O)c(O)c(O)c2)[C@H](OC(=O)c2cc(O)c(O)c(O)c2)[C@@H](OC(=O)c2cc(O)c(O)c(O)c2)[C@@H]1OC(=O)c1cc(O)c(O)c(O)c1)c1cc(O)c(O)c(O)c1 [Compound 3, 1,2,3,4,6-penta-O-galloyl-β-D-glucose] |  | 
6 | 3.5 ± 0.5 | O=C(OC[C@H]1O[C@@H](OC(=O)c2cc(O)c(O)c(O)c2)[C@H](OC(=O)c2cc(O)c(O)c(OC(=O)c3cc(O)c(O)c(O)c3)c2)[C@@H](OC(=O)c2cc(O)c(O)c(O)c2)[C@@H]1OC(=O)c1cc(O)c(O)c(O)c1)c1cc(O)c(O)c(O)c1 [Compound 2, 2-O-digalloyl-1,3,4,6-tetra-O-galloyl-β-D-glucose] | 64 | 
